{"source": "paper PMC12455437", "about": "“Bispecific DNA‐Peptide Probes for Targeting Receptor Pairs on Live Cells” (Angewandte Chemie (International Ed. in English), 2025)", "system": "HEK‐293 cells (VEGFR2−, αvβ3−)", "test": "AlamarBlue cell viability, HEK-293", "assay_type": "cell-based", "details": "200 nM MMAE in free form, 10 min in PBS, 37 °C, 10% Alamar blue 6 h; HUVEC, HEK-293, HCT-116, A498 compared (Figure S44)", "excerpt": "Figure 6 Cytotoxicity of cathepsin B‐cleavable vcMMAE‐DNA‐peptide complexes LC40 and components. a) Viability of HUVECs after treatment with unlabeled DNA complex 2), vcMMAE‐template DNA 3), single‐stranded monovalent DNA‐peptide conjugates 4 and 5), heterobivalent LC40 lacking cytotoxic payload 6), both i) single‐stranded monovalent DNA‐peptide conjugates followed by ii) addition of vcMMAE‐template 7), with i) unlabeled DNA complex followed by addition of ii) both single‐stranded monovalent DNA‐peptide conjugates and subsequently iii) vcMMAE‐template 8 and 9), vcMMAE‐LC40 at varied concentrations 10–15) or with unlabeled DNA complex prior to addition of vcMMAE‐LC40 16 and 17). […] Flow cytometric analysis of HUVECs mixed with e) eGFP‐expressing HEK‐293 cells or f) anti‐EpCAM antibody‐stained HCT‐116 cells assessed by dead cell staining. […]\nThe collected HUVEC cells were washed twice with OptiMEM and added to 2.4 mL OptiMEM in T25 flasks.The siRNA-lipofectamine complex (600 µL) was added to 2.4 mL HUVEC cells, and the mixture was incubated at 37°C, 5% CO 2 for 4 h. […] The transfection efficiency was calculated by flow cytometry and comparing the signal of anti-integrin antibody (A488) from HUVEC cells transfected with siRNA + lipofectamine with that from the cells with mock transfection (Fig. S39). […]", "note": "Where a SMILES comes first, the peptide text is derived from it. [ ]: non-standard residue; d: D form. The star is where a group is joined. Dolaproine = CO[C@@H]([C@@H]1CCCN1)[C@@H](C)C(=O)O; Dil = CC[C@H](C)[C@H](NC)[C@@H](CC(=O)O)OC; X1 = C[C@@H](N*)[C@@H](O)c1ccccc1; NMeV = CN[C@H](C(=O)O)C(C)C", "data": [{"smiles": "CC[C@H](C)[C@@H]([C@@H](CC(=O)N1CCC[C@H]1[C@H](OC)[C@@H](C)C(=O)N[C@H](C)[C@@H](O)c1ccccc1)OC)N(C)C(=O)[C@@H](NC(=O)[C@@H](NC)C(C)C)C(C)C", "note": "[MMAE, monomethyl auristatin E] (H-[NMeV]V[Dil][Dolaproine]-X1)", "values": [{"measurement": "cytotoxic effect of MMAE in free form, comparison of cell lines", "result": "most vulnerable"}]}]}
